Measured values reported in ChEMBL document CHEMBL5291721, “A preclinical secondary pharmacology resource illuminates target-adverse drug reaction associations of marketed drugs” (Nat Commun, 2023).

What was measured:
[1] = biological target: Voltage-gated inwardly rectifying potassium channel KCNH2 (Homo sapiens, UniProt Q12809); type: functional; details: read-out: AC50
Thromboxane A2 receptor [2] = biological target: T1, Thromboxane A2 receptor (Homo sapiens, UniProt P21731); type: functional, cell-based
T1 sequence (P21731 whole entry): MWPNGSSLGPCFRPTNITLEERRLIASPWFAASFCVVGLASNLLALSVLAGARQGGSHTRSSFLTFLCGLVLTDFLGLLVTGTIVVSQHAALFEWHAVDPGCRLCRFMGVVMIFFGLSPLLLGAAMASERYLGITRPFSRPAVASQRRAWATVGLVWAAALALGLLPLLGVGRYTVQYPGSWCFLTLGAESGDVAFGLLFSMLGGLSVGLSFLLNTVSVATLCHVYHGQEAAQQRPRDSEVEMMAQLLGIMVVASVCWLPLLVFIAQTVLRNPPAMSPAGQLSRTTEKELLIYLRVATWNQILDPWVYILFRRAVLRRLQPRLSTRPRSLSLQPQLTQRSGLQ

[3] = biological target: T2, Prostaglandin G/H synthase 1 (Homo sapiens, UniProt P23219); type: functional
T2 sequence (P23219 whole entry): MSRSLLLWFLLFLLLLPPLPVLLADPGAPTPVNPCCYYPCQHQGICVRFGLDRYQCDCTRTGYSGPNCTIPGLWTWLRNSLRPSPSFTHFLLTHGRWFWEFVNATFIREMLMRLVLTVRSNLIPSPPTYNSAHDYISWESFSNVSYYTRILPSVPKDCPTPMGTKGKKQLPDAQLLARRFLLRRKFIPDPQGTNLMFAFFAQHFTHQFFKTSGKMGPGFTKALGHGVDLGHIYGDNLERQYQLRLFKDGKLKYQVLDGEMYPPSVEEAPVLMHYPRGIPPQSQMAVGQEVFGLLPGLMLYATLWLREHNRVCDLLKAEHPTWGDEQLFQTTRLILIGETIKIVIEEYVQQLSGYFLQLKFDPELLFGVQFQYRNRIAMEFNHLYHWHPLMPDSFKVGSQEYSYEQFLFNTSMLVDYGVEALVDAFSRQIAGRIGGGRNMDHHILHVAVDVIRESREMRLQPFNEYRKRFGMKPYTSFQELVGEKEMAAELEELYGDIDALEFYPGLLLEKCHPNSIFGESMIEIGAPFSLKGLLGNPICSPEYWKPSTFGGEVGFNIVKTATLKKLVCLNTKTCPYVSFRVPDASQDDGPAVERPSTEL

[4] = biological target: T2, Prostaglandin G/H synthase 1; type: functional; remark: listed apart in the source
Adenosine receptor A3 = biological target: T3, Adenosine receptor A3 (Homo sapiens, UniProt P0DMS8)
T3 sequence (P0DMS8 whole entry): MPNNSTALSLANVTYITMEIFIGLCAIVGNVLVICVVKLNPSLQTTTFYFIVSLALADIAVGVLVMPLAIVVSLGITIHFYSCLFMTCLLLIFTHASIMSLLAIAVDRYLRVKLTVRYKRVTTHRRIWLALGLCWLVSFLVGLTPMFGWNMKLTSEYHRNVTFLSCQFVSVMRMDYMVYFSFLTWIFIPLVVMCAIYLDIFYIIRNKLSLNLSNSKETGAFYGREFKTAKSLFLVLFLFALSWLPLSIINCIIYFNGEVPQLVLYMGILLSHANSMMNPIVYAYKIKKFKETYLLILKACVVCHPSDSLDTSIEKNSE

[5] = biological target: T4, Alpha-1A adrenergic receptor (Homo sapiens, UniProt P35348); type: functional, cell-based
T4 sequence (P35348 whole entry): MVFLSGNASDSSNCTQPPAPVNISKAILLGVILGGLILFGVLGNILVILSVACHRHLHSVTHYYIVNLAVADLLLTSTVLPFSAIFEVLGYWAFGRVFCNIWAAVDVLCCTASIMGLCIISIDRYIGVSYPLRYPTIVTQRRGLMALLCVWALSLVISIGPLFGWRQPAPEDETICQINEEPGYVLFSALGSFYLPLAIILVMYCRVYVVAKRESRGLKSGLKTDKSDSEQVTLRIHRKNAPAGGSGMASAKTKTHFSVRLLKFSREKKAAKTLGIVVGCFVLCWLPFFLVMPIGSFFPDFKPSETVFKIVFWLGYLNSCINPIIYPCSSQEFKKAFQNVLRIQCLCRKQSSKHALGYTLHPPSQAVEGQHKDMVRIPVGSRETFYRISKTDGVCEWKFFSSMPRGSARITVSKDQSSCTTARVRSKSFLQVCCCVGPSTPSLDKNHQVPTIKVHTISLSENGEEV

[6] = biological target: 5-hydroxytryptamine receptor 2B (Homo sapiens, UniProt P41595); type: functional, cell-based
Chain of 5-hydroxytryptamine receptor 2B (P41595 whole entry): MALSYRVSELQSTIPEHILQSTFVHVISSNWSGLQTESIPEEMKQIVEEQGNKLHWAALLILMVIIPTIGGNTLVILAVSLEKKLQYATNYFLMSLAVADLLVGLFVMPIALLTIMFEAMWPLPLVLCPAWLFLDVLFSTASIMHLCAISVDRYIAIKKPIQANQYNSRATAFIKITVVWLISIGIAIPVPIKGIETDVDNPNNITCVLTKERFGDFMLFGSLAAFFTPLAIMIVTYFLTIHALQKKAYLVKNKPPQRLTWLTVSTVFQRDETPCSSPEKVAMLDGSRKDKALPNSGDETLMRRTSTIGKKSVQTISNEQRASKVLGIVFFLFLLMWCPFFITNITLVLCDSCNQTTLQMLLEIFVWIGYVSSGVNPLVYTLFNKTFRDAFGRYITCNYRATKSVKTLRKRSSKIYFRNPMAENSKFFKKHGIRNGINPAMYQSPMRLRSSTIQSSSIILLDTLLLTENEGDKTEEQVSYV

Estrogen receptor = biological target: T5, Estrogen receptor (Homo sapiens, UniProt P03372)
T5 sequence (P03372 whole entry): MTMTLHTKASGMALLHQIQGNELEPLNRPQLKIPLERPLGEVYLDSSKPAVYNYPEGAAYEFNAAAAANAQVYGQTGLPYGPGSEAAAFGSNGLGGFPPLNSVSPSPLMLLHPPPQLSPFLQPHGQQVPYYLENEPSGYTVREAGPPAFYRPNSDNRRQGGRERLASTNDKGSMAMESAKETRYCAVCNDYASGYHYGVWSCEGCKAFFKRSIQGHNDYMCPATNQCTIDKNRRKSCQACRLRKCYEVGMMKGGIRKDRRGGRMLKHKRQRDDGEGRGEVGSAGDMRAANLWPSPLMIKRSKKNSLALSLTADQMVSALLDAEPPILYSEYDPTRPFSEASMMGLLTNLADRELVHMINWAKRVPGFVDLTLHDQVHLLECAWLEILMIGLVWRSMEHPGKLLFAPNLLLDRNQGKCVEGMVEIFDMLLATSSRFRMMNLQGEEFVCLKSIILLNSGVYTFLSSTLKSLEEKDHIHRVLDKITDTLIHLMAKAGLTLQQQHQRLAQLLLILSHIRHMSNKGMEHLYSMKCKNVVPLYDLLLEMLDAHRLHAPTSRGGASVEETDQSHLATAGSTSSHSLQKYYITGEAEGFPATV

Prothrombin = Prothrombin (Homo sapiens, UniProt P00734); type: functional
[7] = biological target: T6, Amine oxidase [flavin-containing] A (Homo sapiens, UniProt P21397); type: functional
T6 sequence (P21397 whole entry): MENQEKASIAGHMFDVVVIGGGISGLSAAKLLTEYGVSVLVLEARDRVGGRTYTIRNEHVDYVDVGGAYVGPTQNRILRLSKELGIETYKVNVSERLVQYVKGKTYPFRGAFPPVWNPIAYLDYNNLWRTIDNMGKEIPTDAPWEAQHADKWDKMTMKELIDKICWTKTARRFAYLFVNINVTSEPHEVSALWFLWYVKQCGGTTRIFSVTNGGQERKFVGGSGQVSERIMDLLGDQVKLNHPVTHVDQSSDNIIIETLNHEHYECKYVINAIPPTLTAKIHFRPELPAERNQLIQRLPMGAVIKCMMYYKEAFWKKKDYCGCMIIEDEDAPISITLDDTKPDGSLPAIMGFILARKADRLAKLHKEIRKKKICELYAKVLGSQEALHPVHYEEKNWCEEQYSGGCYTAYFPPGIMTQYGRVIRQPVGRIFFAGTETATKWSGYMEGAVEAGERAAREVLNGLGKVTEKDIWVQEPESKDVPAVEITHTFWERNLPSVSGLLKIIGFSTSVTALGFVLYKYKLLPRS

[8] = biological target: Sodium-dependent dopamine transporter (Homo sapiens, UniProt Q01959)
Thromboxane A2 receptor [9] = biological target: T1, Thromboxane A2 receptor; type: functional, cell-based; remark: listed apart in the source
Mu-type opioid receptor = Mu-type opioid receptor (Homo sapiens, UniProt P35372)
Chain of Mu-type opioid receptor (P35372 whole entry): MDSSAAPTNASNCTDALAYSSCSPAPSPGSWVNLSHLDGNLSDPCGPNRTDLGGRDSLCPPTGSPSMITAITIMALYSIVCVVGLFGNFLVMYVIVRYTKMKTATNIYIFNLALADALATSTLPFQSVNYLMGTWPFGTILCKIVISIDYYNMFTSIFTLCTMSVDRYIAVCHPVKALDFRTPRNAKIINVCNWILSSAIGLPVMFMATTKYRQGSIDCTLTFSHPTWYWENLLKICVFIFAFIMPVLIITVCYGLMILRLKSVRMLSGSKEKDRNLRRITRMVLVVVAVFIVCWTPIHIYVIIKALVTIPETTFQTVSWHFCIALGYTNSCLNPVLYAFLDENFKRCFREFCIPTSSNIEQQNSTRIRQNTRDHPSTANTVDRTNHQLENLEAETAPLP

Acetylcholinesterase = Acetylcholinesterase (Homo sapiens, UniProt P22303); type: functional
Chain of Acetylcholinesterase (P22303 whole entry): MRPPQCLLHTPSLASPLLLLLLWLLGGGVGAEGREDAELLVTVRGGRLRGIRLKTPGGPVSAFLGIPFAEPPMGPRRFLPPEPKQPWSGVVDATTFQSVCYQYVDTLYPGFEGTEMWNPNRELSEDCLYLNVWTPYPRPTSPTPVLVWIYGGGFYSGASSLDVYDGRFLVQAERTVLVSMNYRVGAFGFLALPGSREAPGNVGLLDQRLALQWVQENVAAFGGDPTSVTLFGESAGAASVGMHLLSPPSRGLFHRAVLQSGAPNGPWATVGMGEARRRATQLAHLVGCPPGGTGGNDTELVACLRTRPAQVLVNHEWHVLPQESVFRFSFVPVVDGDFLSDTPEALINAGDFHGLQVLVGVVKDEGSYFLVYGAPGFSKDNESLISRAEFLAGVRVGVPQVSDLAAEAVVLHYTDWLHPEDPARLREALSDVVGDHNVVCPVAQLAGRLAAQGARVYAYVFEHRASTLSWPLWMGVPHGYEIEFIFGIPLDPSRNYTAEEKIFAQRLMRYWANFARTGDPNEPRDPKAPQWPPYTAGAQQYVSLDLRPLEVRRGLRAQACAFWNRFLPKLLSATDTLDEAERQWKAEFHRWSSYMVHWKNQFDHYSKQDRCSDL

[10] = biological target: cGMP-inhibited 3',5'-cyclic phosphodiesterase 3A (Homo sapiens, UniProt Q14432); type: functional
Chain of cGMP-inhibited 3',5'-cyclic phosphodiesterase 3A (Q14432 whole entry): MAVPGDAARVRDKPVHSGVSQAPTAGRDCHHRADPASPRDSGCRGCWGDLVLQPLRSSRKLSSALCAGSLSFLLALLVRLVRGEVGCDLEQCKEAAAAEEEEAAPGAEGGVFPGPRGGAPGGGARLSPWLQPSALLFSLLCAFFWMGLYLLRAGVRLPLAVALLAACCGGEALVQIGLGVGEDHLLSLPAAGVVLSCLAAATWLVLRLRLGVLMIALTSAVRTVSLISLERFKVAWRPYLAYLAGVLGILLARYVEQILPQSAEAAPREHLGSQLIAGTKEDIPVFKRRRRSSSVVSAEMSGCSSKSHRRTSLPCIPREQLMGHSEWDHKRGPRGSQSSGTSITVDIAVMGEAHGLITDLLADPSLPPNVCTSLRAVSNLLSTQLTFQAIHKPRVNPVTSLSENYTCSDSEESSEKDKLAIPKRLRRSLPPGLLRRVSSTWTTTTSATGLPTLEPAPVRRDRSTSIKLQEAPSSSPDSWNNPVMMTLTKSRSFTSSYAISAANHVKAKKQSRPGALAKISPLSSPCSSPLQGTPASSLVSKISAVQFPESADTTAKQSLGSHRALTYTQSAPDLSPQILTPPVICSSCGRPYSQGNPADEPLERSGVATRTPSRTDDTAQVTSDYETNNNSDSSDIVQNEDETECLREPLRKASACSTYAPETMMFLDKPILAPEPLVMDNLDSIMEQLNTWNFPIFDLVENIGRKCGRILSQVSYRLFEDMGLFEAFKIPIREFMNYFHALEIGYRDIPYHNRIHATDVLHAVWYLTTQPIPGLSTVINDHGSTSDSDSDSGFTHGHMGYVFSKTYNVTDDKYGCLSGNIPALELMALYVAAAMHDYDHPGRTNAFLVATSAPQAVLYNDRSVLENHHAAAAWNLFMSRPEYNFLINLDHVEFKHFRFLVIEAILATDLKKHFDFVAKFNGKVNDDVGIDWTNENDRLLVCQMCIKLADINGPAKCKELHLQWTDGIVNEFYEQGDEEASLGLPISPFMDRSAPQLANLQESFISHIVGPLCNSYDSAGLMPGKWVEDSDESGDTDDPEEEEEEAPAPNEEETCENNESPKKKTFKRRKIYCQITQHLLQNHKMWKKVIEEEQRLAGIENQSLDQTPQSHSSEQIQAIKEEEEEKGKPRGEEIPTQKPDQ

D(3) dopamine receptor = D(3) dopamine receptor (Homo sapiens, UniProt P35462)
Chain of D(3) dopamine receptor (P35462 whole entry): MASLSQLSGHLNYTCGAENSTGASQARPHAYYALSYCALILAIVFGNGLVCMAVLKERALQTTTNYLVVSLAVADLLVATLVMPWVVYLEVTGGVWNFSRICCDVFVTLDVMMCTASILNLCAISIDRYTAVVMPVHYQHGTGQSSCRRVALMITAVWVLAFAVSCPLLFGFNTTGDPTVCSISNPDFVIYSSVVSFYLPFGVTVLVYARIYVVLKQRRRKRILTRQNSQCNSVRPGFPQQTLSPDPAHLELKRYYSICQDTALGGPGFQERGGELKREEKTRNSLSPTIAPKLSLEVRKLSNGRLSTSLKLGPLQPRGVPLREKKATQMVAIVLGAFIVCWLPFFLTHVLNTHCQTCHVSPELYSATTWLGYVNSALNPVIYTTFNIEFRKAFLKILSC
Further: assay procedure not described here.

Chain of Voltage-gated inwardly rectifying potassium channel KCNH2 (Q12809 whole entry): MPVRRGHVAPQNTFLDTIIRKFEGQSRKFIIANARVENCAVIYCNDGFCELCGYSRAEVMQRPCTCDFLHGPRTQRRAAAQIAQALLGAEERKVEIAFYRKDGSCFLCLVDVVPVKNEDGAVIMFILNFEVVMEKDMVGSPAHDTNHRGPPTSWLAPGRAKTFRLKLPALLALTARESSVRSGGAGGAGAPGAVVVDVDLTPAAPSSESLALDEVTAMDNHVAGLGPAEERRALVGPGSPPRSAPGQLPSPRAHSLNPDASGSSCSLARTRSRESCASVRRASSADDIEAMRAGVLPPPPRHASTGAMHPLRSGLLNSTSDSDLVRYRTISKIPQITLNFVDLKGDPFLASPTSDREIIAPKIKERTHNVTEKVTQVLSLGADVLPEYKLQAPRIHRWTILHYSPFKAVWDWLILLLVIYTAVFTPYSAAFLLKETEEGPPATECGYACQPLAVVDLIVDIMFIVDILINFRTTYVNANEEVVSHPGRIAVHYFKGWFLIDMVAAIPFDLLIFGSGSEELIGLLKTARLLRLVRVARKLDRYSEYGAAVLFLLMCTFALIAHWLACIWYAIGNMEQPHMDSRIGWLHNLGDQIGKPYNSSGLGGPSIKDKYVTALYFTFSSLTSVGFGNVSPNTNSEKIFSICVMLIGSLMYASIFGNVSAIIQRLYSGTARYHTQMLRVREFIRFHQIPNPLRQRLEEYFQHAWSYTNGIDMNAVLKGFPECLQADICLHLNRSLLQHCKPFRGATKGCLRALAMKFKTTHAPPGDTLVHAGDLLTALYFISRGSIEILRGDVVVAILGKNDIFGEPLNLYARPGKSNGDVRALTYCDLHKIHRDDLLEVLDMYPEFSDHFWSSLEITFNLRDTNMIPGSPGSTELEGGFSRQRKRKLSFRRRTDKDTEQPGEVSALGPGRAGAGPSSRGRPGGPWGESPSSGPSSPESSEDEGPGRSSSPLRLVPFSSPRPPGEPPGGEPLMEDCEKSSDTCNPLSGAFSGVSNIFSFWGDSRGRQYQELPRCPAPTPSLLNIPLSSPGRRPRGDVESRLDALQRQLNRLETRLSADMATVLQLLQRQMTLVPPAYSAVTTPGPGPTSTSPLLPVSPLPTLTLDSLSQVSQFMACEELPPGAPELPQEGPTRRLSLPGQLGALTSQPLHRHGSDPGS

Row | SMILES | AC50 [1] | AC50 (Thromboxane A2 receptor [2]) | AC50 [3] | AC50 [4] | AC50 (Adenosine receptor A3) | AC50 [5] | AC50 [6] | AC50 (Estrogen receptor) | AC50 (Prothrombin) | AC50 [7] | AC50 [8] | AC50 (Thromboxane A2 receptor [9]) | AC50 (Mu-type opioid receptor) | AC50 (Acetylcholinesterase) | AC50 [10] | AC50 (D(3) dopamine receptor)
1 | NS(=O)(=O)c1cc2c(cc1Cl)NC(C1CC3C=CC1C3)NS2(=O)=O (stereo not given) [CYCLOTHIAZIDE] | > 30 µM | > 30 µM | > 30 µM | > 30 µM | > 30 µM | > 30 µM | > 30 µM | > 30 µM | > 30 µM | > 30 µM | > 30 µM | > 30 µM | > 30 µM | > 30 µM | > 30 µM | 
2 | C[C@@H]1C[C@H]2[C@@H]3CCC4=CC(=O)C=C[C@]4(C)[C@@]3(F)[C@@H](O)C[C@]2(C)[C@H]1C(=O)CO [DESOXIMETASONE] | > 30 µM | > 30 µM | > 30 µM | > 30 µM | > 30 µM | > 30 µM | > 30 µM |  | > 30 µM | > 30 µM | > 30 µM | > 30 µM | > 30 µM | > 30 µM | > 30 µM | > 30 µM
3 | CS(=O)(=O)Nc1cc2occ(NC=O)c(=O)c2cc1Oc1ccccc1 [IGURATIMOD] | > 30 µM | > 30 µM | 4.51 µM | 4.33 µM | 1.44 µM | > 30 µM | > 30 µM |  | > 30 µM | > 30 µM | > 30 µM | > 30 µM | > 30 µM | > 30 µM | > 30 µM | > 30 µM
4 | CCN(CC)CCNc1ccc(C)c2sc3ccccc3c(=O)c12 [LUCANTHONE] | 1.3 µM | > 30 µM | > 30 µM | > 30 µM | 12.4 µM |  | > 30 µM | > 30 µM | > 30 µM | 16.3 µM | 3.42 µM | 13.4 µM | 11.8 µM | > 30 µM | > 30 µM | 0.91 µM
5 | C1N2CN3CN1CN(C2)C3 [METHENAMINE] | > 30 µM | > 30 µM | > 30 µM | > 30 µM | > 30 µM | > 30 µM | > 30 µM |  | > 30 µM | > 30 µM | > 30 µM | > 30 µM | > 30 µM | > 30 µM | > 30 µM | > 30 µM
